# Test results: publication PMC6268585, “Synthesis, Molecular Properties Prediction, and Anti-staphylococcal Activity of N-Acylhydrazones and New 1,3,4-Oxadiazole Derivatives” (Molecules, 2012)
# Read-outs that look alike come from different tables or passages of the source.
# How the values were obtained:
# [1] = system: S. aureus SA-1199B (overexpresses the NorA efflux protein); experiment: MIC/MBC by broth microdilution, strain SA-1199B; type: cell-based; settings: Staphylococcus aureus; for MBC: read-out: Minimum Bactericidal Concentration (MBC); for MIC: read-out: Minimum Inhibitory Concentration (MIC)
# Protocol: (§1) The effluxing strains were kindly provided by Professor Simon Gibbons (University of London, London, UK), and the MARSA strains were obtained from the culture collection of the Laboratory of Microorganism Genetics (Department of Molecular Biology, Federal University of Paraíba). All strains were maintained on blood agar base slants (BAB, Difco Laboratories Ltd., Brazil), and prior to use, the cells were grown overnight at 37 °C in brain heart infusion broth (BHI, Difco Laboratories Ltd., Detroit, MI, USA).
# (§2) The stock solutions of the compounds were prepared in DMSO which at its highest final concentration after dilution in the broth (4%) caused no inhibition of bacterial growth. The minimum inhibitory concentrations (MICs) of the compounds were determined in BHI by microdilution assay using a suspension of ca. 10^5 cfu/mL and a drug concentration range of 256 to 0.5 μg/mL (two-fold serial dilutions). The MIC is defined as the lowest concentration at which no growth is observed. The dye resazurin was used for better visualization of the bacterial growth. […] The minimum bactericidal concentration (MBC) is defined as the lowest drug concentration that gives no growth on the agar.
# [2] = system: S. aureus RN-4220 (plasmid pUL5054, MsrA macrolide efflux protein); experiment: MIC/MBC by broth microdilution, strain RN-4220; type: cell-based; settings: Staphylococcus aureus; for MBC: read-out: Minimum Bactericidal Concentration (MBC); for MIC: read-out: Minimum Inhibitory Concentration (MIC)
# Protocol: as §1, §2
# [3] = system: S. aureus 007 (MARSA); experiment: MIC/MBC by broth microdilution, clinical strain 007; type: cell-based; settings: Staphylococcus aureus; for MIC: read-out: Minimum Inhibitory Concentration (MIC); for MBC: read-out: Minimum Bactericidal Concentration (MBC)
# Protocol: as §1, §2
# [4] = system: S. aureus 05H (MARSA); experiment: MIC/MBC by broth microdilution, clinical strain 05H; type: cell-based, Staphylococcus aureus; settings: for MBC / MIC: Staphylococcus aureus, 5 h; for MBC: read-out: Minimum Bactericidal Concentration (MBC)
# Protocol: as §1, §2
# [5] = system: S. aureus IS-58 (TetK tetracycline efflux protein); experiment: MIC/MBC by broth microdilution, strain IS-58; type: cell-based; settings: Staphylococcus aureus; for MBC: read-out: Minimum Bactericidal Concentration (MBC); for MIC: read-out: Minimum Inhibitory Concentration (MIC)
# Protocol: as §1, §2
# [6] = strain 007, first number of cell MIC-MBC
# [7] = strain 007, second number of cell MIC-MBC
# [8] = read-out: Minimum Inhibitory Concentration (MIC)
Compound,MBC [1] [µg/mL],MIC [1] [µg/mL],MBC [2] [µg/mL],"MIC [3, 6] [µg/mL]","MBC [3, 7] [µg/mL]",MBC [4] [µg/mL],"MIC [4, 8] [µg/mL]",melting point [°C],MIC [2] [µg/mL],MBC [5] [µg/mL],MIC [5] [µg/mL],MBC [3] [µg/mL],MIC [3] [µg/mL],MIC [4] [µg/mL],fold more potent than the standard chloramphenicol ([4]; strain MARSA (05H)) [fold]
"CC(=O)N1N=C(c2ccc([N+](=O)[O-])cc2)OC1c1ccc([N+](=O)[O-])o1 (stereo not drawn) [Compound 5c, 1-(2-(5-Nitrofuran-2-yl)-5-(4-nitrophenyl)-1,3,4-oxadiazol-3(2H)-yl)ethanone]",32,32,32,16,16,8,8,188 to 190,–,–,–,–,–,–,–
"Cc1ccc(C(=O)NN=Cc2ccc([N+](=O)[O-])o2)cc1 [Compound 4b, 4-Methyl-N′-((5-nitrofuran-2-yl)methylene)benzohydrazide]",32,16,–,8,8,4,4,–,–,–,–,–,–,–,–
"CC(=O)N1N=C(c2ccccc2)OC1c1ccc([N+](=O)[O-])o1 (stereo not drawn) [Compound 5a, 1-(2-(5-Nitrofuran-2-yl)-5-phenyl-1,3,4-oxadiazol-3(2H)-yl)ethanone]",–,–,–,32,32,16,16,178 to 180,16,16,16,–,–,–,–
"O=C(NN=Cc1ccc([N+](=O)[O-])o1)c1ccc([N+](=O)[O-])cc1 [Compound 4c, 4-Nitro-N′-((5-nitrofuran-2-yl)methylene)benzohydrazide]",32,32,32,8,16,8,8,–,16,–,16,–,–,–,–
"O=C(N[C@H](CO)[C@H](O)c1ccc([N+](=O)[O-])cc1)C(Cl)Cl [Chloramphenicol, chloramphenicol, reference compound]",64,64,128,–,–,128,64,–,64,128,64,128,64,64,–
"O=C(NN=Cc1ccc([N+](=O)[O-])o1)c1ccc(Cl)cc1 [Compound 4d, 4-Chloro-N′-((5-nitrofuran-2-yl)methylene)benzohydrazide]",16,16,–,8,8,4,4,–,–,16,–,–,–,4,16
"COc1ccc(C(=O)NN=Cc2ccc([N+](=O)[O-])o2)cc1 [Compound 4e, 4-Methoxy-N′-((5-nitrofuran-2-yl)methylene)benzohydrazide]",16,16,16,8,8,4,4,–,16,–,–,–,–,–,–
"CC(=O)N1N=C(c2ccc(C)cc2)OC1c1ccc([N+](=O)[O-])o1 (stereo not drawn) [Compound 5b, 1-(2-(5-Nitrofuran-2-yl)-5-(methylphenyl)-1,3,4-oxadiazol-3(2H)-yl)ethanone]",–,–,–,–,–,–,–,160 to 162,–,–,–,–,–,–,–
"O=C(NN=Cc1ccc([N+](=O)[O-])o1)c1ccccc1 [Compound 4a, N′-((5-nitrofuran-2-yl)methylene)benzohydrazide]",16,16,–,8,8,8,8,–,–,–,–,–,–,–,–
"COc1ccc(C2=NN(C(C)=O)C(c3ccc([N+](=O)[O-])o3)O2)cc1 (stereo not drawn) [Compound 5e, 1-(2-(5-Nitrofuran-2-yl)-5-(methoxyphenyl)-1,3,4-oxadiazol-3(2H)-yl)ethanone]",–,–,–,–,–,–,–,181 to 183,–,–,–,–,–,–,–
CC(=O)N1N=C(c2ccc(Cl)cc2)OC1c1ccc([N+](=O)[O-])o1 (stereo not drawn) [Compound 5d],32,–,32,16,16,8,8,188 to 190,–,–,–,–,–,8,–
